Assay results taken from patent US20250157571A1, “Methods, Apparatus, and Systems for Determining the Functional Microbial Niche and Identifying Interventions in Complex Hetergeneous Communities” (The Regents of the University of California, priority 2022, published 2025).
“Also recorded” adds a separate entry of the source.

Columns and labels:
Format in all cases: cell-based
16-member SynCom = experiment: Targeted interventions in the SynCom (prebiotic metabolite or probiotic strain addition), metagenomics relative abundance; settings: 7 days; for change in relative abundance in the community upon metabolite addition: SynCom in 0.1×R2A + metabolite, three concentrations; for relative abundance of primary targets (high TE for import protein) after metabolite addition / relative abundance of secondary targets (guild competitors) after metabolite addition: SynCom in 0.1×R2A + substrate vs 0.1×R2A control
Procedure: Optical density readings at 600 nm (OD600), from isolates pre-cultures were taken with a Molecular Devices SpectraMax M3 Multi-Mode Microplate Reader (VWR, cat #89429-536). Precultures were diluted to a starting OD600 of 0.02 in 5 mL 0.1×R2A. The SynCom was assembled in large volumes to minimize pipetting error and maximize reproducibility. Briefly, 1 mL of each normalized culture (OD600=0.02) was diluted in a final volume of 250 mL 0.1×R2A and spread into 20 mL aliquots in Falcon tubes. Falcon tubes containing the SynCom inoculum were then incubated at 30° C. for 7 days, in aerobic conditions, in four biological replicates. After 7 days of culture, the SynCom samples were harvested by centrifugation and pellets were immediately treated for multi-omics analysis as detailed below (DNA-, RNA- and metaRibo-Seq).
For targeted modifications experiments carried out in the SynCom, the SynCom was assembled and cultured as described above, with modifications. Specific isolates were omitted from the SynCom assembly for the dropout experiments, as described in FIGS. 2d and 2e. Alternatively, concentrated stocks of either Burkholderia, Chitinophaga, Mucilaginibacter or Rhizobium were added as probiotics to the SynCom. Metabolites from concentrated, filter-sterilized stocks of the desired substrates were added to the medium for the prebiotics experiments. Modified SynCom were then incubated at 30° C. for 7 days, in aerobic conditions, in two biological replicates. After 7 days of culture, the modified SynCom samples were harvested by centrifugation and pellets were stored at −80° C. prior to metagenomics analysis.
DNA and RNA from SynCom samples were extracted from leftover lysates from metaRibo-Seq sample preparation, stored in Trizol at −80 C. DNA from soil samples was extracted using ZymoBIOMICS DNA miniprep kit (Zymo). DNA-Seq libraries were prepared using Nextera XT library preparation kit with 700 pg DNA input per sample and 6:30 min tagmentation at 55° C. and barcoded using Nextera XT indexes (Illumina). RNA was extracted using RNeasy mini kit (Qiagen), and rRNA was removed using QIAseq FastSelect-5S/16S/23S kit (Qiagen). RNA-Seq libraries were prepared using KAPA RNA HyperPrep kit (Roche) and barcoded using TruSeq indexes (Illumina). Amplification was followed in real time using SYBR-Green and stopped when reaching a plateau.
Adapter sequences were removed from multi-omics sequencing data using TrimGalore (Cutadapt version 1.18), and quality controlled using FastQC version 0.11.9 (Andrews et al. 2010). Trimmed reads were aligned to a custom SynCom database using bowtie2 version 2.3.2. Gene count tables were obtained using Woltka version 0.1.1 (Zhu et al. 2022). Multi-omics gene counts were normalized to reads per kilobase per million (RPKM).

Burkholderia = experiment: Pre-/probiotic intervention in natural soil, shotgun metagenomics relative abundance; settings: for Burkholderia's relative abundance: soil+SynCom probiotic+prebiotic versus soil+SynCom probiotic (FIG. 6)
Rhizobium and Variovorax = experiment: as above; settings: for relative abundance of Burkholderia's competitors Rhizobium and Variovorax: soil+SynCom probiotic+prebiotic versus soil+SynCom probiotic (FIG. 6)
Procedure: (§1) A soil associated with switchgrass lowland reference genome clone (Missaoui, Boerma, and Bouton 2005) that was sampled from a field located in Texas, USA (28.3325, −98.1175) was used. Fifty gram (50 g) of soil was added to 250 mL of 0.1×R2A culture medium or 0.1×R2A+SynCom inoculum prepared as described above, and this volume was spread in 14 mL culture tubes (5 mL in each tube). 50-500 μL of concentrated, filter-sterilized stocks of the desired substrates and/or 20 μL of the SynCom isolate pure cultures diluted at an OD600 of 0.02 (i.e. approximately 8.10^5 CFU/mL) were then added. Soil samples were then grown at 30° C. for 7 days, in aerobic conditions, in two biological replicates (three replicates for reference soil sample). After 7 days of culture, the soil samples were harvested by centrifugation and pellets were stored at −80° C. prior to metagenomics analysis.
(§2) Soil samples from a switchgrass crop similar to the site from which the SynCom strains were originally isolated, were incubated in 33 different conditions: 0.1×R2A alone (soil control), with and without metabolite additions (prebiotic), and with and without individual SynCom members (probiotic, 8.10^5 CFU/mL), or the whole 16-member SynCom (probiotic consortium, 8.10^5 CFU/mL of each member) (see methods and FIG. 6). Changes in microbial community composition were analyzed by shotgun metagenomics.

Mucilaginibacter = experiment: as above; settings: natural soil in 0.1×R2A, 7 days
Procedure: as §1, §2

Chitinophaga = experiment: as above; settings: natural soil in 0.1×R2A, 7 days
Procedure: as §1, §2

Paenibacillus = experiment: as above; settings: natural soil in 0.1×R2A, 7 days
Procedure: as §1, §2

[1] = natural soil in 0.1×R2A, 7 days

C/C1=C2/[N-][C@H]([C@H](CC(N)=O)[C@@]2(C)CCC(=O)NC[C@H](C)OP(=O)([O-])O[C@H]2[C@@H](O)[C@@H](n3cnc4cc(C)c(C)cc43)O[C@@H]2CO)[C@]2(C)N=C(/C(C)=C3N=C(/C=C4N=C1[C@@H](CCC(N)=O)C\4(C)C)[C@@H](CCC(N)=O)[C@]\3(C)CC(N)=O)[C@@H](CCC(N)=O)[C@]2(C)CC(N)=O.[Co+2] (stereo in doubt) [cobalamin]
change in relative abundance in the community upon metabolite addition (16-member SynCom): did not induce any significant change

N[C@@H](CSSC[C@H](N)C(=O)O)C(=O)O [cystine]
change in relative abundance in the community upon metabolite addition (16-member SynCom): did not induce any significant change

O=C(CO)[C@@H](O)[C@H](O)[C@H](O)CO [fructose]
Burkholderia relative abundance, fold change (Burkholderia; [1]): 3.9 fold change | Burkholderia's relative abundance (Burkholderia): increase in Burkholderia's relative abundance | relative abundance of Burkholderia's competitors (Rhizobium and Variovorax; [1]): decrease of its closest competitors Rhizobium and Variovorax | relative abundance of Burkholderia's competitors Rhizobium and Variovorax (Rhizobium and Variovorax): decrease of its competitors Rhizobium and Variovorax

N[C@@H](CCC(=O)N[C@@H](CS)C(=O)NCC(=O)O)C(=O)O [glutathione]
relative abundance of primary targets (high TE for import protein) after metabolite addition (16-member SynCom): specifically increased primary targets Burkholderia and Chitinophaga | relative abundance of secondary targets (guild competitors) after metabolite addition (16-member SynCom): decreasing their competitors Mucilaginibacter, and Bradyrhizobium | Mucilaginibacter relative abundance (in words) (Mucilaginibacter): did not decrease Mucilaginibacter abundance | Chitinophaga relative abundance (in words) (Chitinophaga): did not increase Chitinophaga

CSCC[C@H](N)C(=O)O [methionine]
change in relative abundance in the community upon metabolite addition (16-member SynCom): did not induce any significant change

NCCCCN [putrescine]
relative abundance of primary targets (high TE for import protein) after metabolite addition (16-member SynCom): specifically increased Paenibacillus and Rhodococcus | relative abundance of secondary targets (guild competitors) after metabolite addition (16-member SynCom): reducing competitors Rhizobium, Bradyrhizobium, and Mucilaginibacter

O=C[C@H](O)[C@H](O)[C@H](O)CO [ribose]
Burkholderia's relative abundance (Burkholderia): increase in Burkholderia's relative abundance | relative abundance of primary targets (high TE for import protein) after metabolite addition (16-member SynCom): specific increase of primary targets Paenibacillus and Burkholderia; also recorded: Paenibacillus (increased), Arthobacter and Brevibacillus (not increased) | relative abundance of secondary targets (guild competitors) after metabolite addition (16-member SynCom): specific decrease of Burkholderia's competitors Variovorax, Rhizobium, and Bradyrhizobium | Paenibacillus relative abundance, fold change (Paenibacillus): 3.5 fold change | relative abundance of Burkholderia's competitors Rhizobium and Variovorax (Rhizobium and Variovorax): decrease of its competitors Rhizobium and Variovorax

OC[C@H]1O[C@H](O[C@H]2O[C@H](CO)[C@@H](O)[C@H](O)[C@H]2O)[C@H](O)[C@@H](O)[C@@H]1O [trehalose]
Paenibacillus relative abundance, fold change (Paenibacillus): 5.5 fold change
